{"source": "paper PMC6934184", "about": "“Selective DNA-PKcs inhibition extends the therapeutic index of localized radiotherapy and chemotherapy” (The Journal of Clinical Investigation, 2019)", "tested_on": "remaining 398 kinases", "test": "SelectScreen Broad Assay Panel, summary", "format": "biochemical", "details": "1 µM", "description": "The in vitro kinase selectivity of NU5455 was determined using the SelectScreen Broad Assay Panel (Thermo Fisher Scientific) involving activity and binding assays (Supplemental Table 1). […] Class IA PI3Ks were measured using the p85α subunit.\nKinase [ATP] % Assay Kinase [ATP] % Assay Kinase [ATP] % Assay Kinase [ATP] % Assay\nDNA-PK Km app 98.3 Z LATS2 n/a 4.7 L KIT D820E n/a 1.3 L GSK3B (GSK3 beta) Km app -2.5 Z\nPIK3C3 (hVPS34) Km app 85.9 A PRKCZ (PKC zeta) Km app 4.7 Z GRK1 n/a 1.3 L BMPR2 n/a -2.5 L\nPIK3C2B (PI3K-C2 beta) 10 28.9 A FGFR1 Km app 4.7 Z BRSK2 n/a 1.2 L CDC42 BPB (MRCKB) Km app -2.5 Z\nSNF1LK2 Km app 26.6 Z MINK1 Km app 4.6 Z NUAK1 (ARK5) Km app 1.2 A AMPK (A2/B2/G2) n/a -2.6 L\nHCK Km app 18.0 Z CSF1R (FMS) Km app 4.3 Z CDK9/cyclin K n/a 1.0 L PRKG1 Km app -2.7 Z\nNEK2 Km app 17.8 Z CSNK1G3 (CK1 gamma 3) Km app 4.2 Z NUAK2 n/a 1.0 L KIT T670E n/a -2.8 L\nALK Km app 17.3 Z STK32C (YANK3) n/a 4.2 L CDK2/cyclin O n/a 0.9 L ERBB4 (HER4) Km app -2.8 Z\nFGFR3 K650M n/a 16.5 L STK22D (TSSK1) Km app 4.2 Z CAMKK2 (CaMKK beta) n/a 0.9 L PLK4 n/a -2.8 L\nSIK3 n/a 16.1 L TAOK3 (JIK) n/a 4.2 L FGFR3 Km app 0.9 Z GRK7 Km app -3.0 Z\nLYN A Km app 15.2 Z RPS6KA4 (MSK2) Km app 4.2 Z ULK2 n/a 0.9 L MAPKAPK2 Km app -3.1 Z\nBMPR1B (ALK6) n/a 14.5 L PTK2B (FAK2) Km app 4.2 Z KIT D816V n/a 0.9 L FGFR4 Km app -3.1 Z\nINSRR (IRR) Km app 14.1 Z CLK2 Km app 4.1 Z CAMK1 (CaMK1) 10 0.8 A CASK n/a -3.1 L […]", "data": [{"smiles": "CN(C(=O)CN1CCOCC1)c1ccc2sc3c(-c4cccc5c(=O)cc(N6CC7CCC(C6)O7)oc45)cccc3c2c1", "note": "[NU5455]", "values": [{"measurement": "inhibition in the majority of the remaining 398 kinases", "result": "less than 10%"}]}]}
